Data taken from patent US20060029544A1, “Receptor-binding cyclic peptides and methods of use” (The Regents of the University of California Office of …, priority 2004, published 2006).

Assays:
[1] = system: A375M melanoma cell line; assay: Adhesion assay: [51Cr]-A375M cells to laminin; format: cell-based, human; conditions: 200 μM peptide
Procedure: (§1) RGD peptides were plated at a maximum concentration of 200 μM and a minimum concentration of 2 nM. For each RGD peptide sequence, linear peptides (A), cyclic peptides (B), and 4-[^19F]-fluorobenzoyl cyclic peptides (C) were assayed. Each RGD peptide concentration was performed in quadruplicate and each experiment was repeated twice.
(§2) Plastic 96-well plates (Falcon 3912; Becton Dickinson) were coated with 50 μl substrate (10 μg/ml laminin or 5 μg/ml vitronectin). The plates were incubated at 37° C. in an 8% CO2 atmosphere for 1 hour. Unbound protein was flicked off and the plates were washed with phosphate buffered saline (PBS) and blocked with bovine serum albumin (0.1% w/v BSA)/PBS/0.1% sodium azide) for 1 hour. The plates were then washed with PBS, placed on a bed of ice and 25 μl of peptide was added to the wells.
Sodium [^51Cr] chromate was purchased from Amersham International, UK. The solution was made isotonic by the addition of 110 μl 10× Hanks buffered salt solution. 100 μl of this solution (3.7 MBq) was added to 5-10×10^6 cells in 500 μl of serum-containing growth medium. The suspension was incubated at 37° C. for 45 minutes with regular agitation to resuspend the cells. The cells were then washed and spun 3 times with serum-free E4 medium to remove any free [^51Cr]chromium. A trypan blue viability count was performed and the cells were diluted to the necessary volume in serum-free E4 medium (4×10^5 cells/ml).
25 μl (about 10,000 cells) were added to each quadruplicate well and the plates incubated at 37° C. in an 8% CO2 atmosphere for 1 hour. Unbound cells were flicked off and the plates were washed twice with PBS/BSA containing 1 mM CaCl2 and 0.5 mM MgCl2. The plates were dabbed dry and cut into individual wells. The radioactivity associated with each well was determined in a gamma counter (1261 Multigamma; Wallac, Sweden). Quadruplicate 25 μl samples of labeled cells were counted as 100% input values. To determine non-specific binding, the ability of cells to bind BSA-coated wells was also assessed. Data for these wells are referred to as background.
The results were calculated as follows: [formula] [formula] NMR Spectroscopy of RGD Peptides
The A375M and VUP melanoma cell lines were used with vitronectin and laminin as substrates. Peptides were titrated in 10-fold dilutions from 200 μM to 2 nM. All data were normalized to the absence of peptide, which corresponded to 100% adhesion. All titrations were performed in quadruplicate and each experiment was repeated at least twice.

[2] = biological target: T1, αvβ5 integrin (Homo sapiens, UniProt P06756+P18084); assay: ELISA: biotinylated vitronectin binding to captured soluble αvβ5-mFc in the presence of RGD peptides; conditions: 20 μM peptide; 100% = signal without peptide
T1 construct: chimeras comprising the extracellular domain of αvβ3, αvβ5, α5β1, and αIIbβ3 linked to the Fc domain of either mouse IgG; purchased Celltech plc (supplied, no catalogue number); host or cells: unpurified hybridoma / tissue culture supernatant from secreting cells
T1 sequence (P06756 31-992 limits assumed): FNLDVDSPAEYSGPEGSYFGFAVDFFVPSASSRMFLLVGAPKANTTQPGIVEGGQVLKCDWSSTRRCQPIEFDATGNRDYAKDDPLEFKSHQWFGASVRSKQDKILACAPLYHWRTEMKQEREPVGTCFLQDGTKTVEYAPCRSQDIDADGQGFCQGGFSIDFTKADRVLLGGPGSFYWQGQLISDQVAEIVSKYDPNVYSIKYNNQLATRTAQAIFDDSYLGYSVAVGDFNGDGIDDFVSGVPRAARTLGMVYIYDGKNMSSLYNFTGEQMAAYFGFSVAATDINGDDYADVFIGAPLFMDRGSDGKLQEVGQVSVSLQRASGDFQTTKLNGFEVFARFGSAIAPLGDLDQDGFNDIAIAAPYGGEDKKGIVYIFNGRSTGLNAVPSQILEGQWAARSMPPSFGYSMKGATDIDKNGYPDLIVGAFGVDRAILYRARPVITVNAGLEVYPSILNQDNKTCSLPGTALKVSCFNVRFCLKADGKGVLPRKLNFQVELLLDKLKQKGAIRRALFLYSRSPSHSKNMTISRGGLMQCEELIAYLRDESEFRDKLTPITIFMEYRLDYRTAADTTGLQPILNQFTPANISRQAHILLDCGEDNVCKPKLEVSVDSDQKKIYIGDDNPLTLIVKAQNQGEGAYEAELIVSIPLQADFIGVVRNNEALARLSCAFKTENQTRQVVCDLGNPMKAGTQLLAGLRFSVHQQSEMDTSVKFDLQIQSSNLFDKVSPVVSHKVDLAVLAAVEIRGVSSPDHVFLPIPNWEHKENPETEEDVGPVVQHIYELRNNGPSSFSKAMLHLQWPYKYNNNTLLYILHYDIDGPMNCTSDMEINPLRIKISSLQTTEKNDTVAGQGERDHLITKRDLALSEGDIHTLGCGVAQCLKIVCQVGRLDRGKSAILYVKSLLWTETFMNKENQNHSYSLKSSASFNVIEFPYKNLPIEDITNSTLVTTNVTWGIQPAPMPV
T1 sequence (P18084 24-719 limits assumed): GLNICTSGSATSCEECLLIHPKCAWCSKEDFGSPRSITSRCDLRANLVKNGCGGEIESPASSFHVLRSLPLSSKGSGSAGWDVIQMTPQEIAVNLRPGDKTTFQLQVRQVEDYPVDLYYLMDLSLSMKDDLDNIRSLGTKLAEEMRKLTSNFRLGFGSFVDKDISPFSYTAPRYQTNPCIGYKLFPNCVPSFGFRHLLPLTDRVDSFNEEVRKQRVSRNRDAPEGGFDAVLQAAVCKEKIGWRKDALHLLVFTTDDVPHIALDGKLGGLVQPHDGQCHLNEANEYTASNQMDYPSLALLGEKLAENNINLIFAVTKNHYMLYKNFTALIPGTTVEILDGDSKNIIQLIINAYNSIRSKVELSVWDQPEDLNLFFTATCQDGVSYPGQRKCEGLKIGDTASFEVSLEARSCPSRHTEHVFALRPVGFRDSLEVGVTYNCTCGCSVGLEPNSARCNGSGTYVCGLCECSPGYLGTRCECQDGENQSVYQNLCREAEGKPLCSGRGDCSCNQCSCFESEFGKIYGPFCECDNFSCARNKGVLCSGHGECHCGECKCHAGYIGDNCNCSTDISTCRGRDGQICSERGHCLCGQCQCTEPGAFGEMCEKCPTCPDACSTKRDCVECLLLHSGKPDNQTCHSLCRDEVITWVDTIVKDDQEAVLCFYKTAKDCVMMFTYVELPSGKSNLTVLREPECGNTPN
Excerpt: (§3) Four different soluble integrins were supplied by Celltech plc. Soluble forms of αvβ3, αvβ5, α5β1, and αIIbβ3 integrin were generated by constructing chimeras comprising the extracellular domain of αvβ3, αvβ5, α5β1, and αIIbβ3 linked to the Fc domain of either mouse IgG (αvβ3-mFc, αvβ5-mFc, and αIIbβ3-mFc) or human IgG (α5β1-hFc) as described by Stephens et al., Cell Adhes. Commun., 7:377-390 (2000) and Coe et al., J. Biol. Chem., 276:35854-35866 (2001). Since the four soluble integrin chimeras were supplied either as purified proteins (αvβ3-mFc and α5β1-hFc) or as unpurified hybridoma supernatants (αIIbβ3-mFc and αvβ5-mFc), it was necessary to use two types of ELISAs. […] In one type of ELISA (FIGS. 2A and 2B), the immobilized component is a 50 kDa fragment of fibronectin. In the second type of ELISA (FIGS. 2C and 2D), the immobilized component is a goat anti-mFc antibody that is used to capture chimeric proteins so that the RGD binding site of the integrin is maximally exposed. Each three-sided box in FIG. 2 represents a single well of a 96-well plate, and the components are listed in the sequence of their addition to the assay. The immobilized component at the bottom of the well is bound to the well by electrostatic interactions.
To analyze the affinity and selectively of RGD peptides for αIIbβ3 and αvβ5, 96-well ELISA plates were coated with anti-murine Fc antibody at 5 μg/ml in PBS, 100 μl per well and left overnight at 4° C. The plates were washed with PBS using a Denley Wellwash 4 Mk 2. Washing was repeated twice with a 400 μl wash per well. 200 μl/well of blocking buffer was then added for 1 hour followed by a repeat washing with PBS. 100 μl of tissue culture supernatant from cells secreting soluble αIIbβ3-mFc or αvβ5-mFc, diluted 1:2 in conjugate buffer, was added to each well. Plates were incubated with shaking for 1 hour followed by two washes with PBS. 100 μl of an RGD peptide (at concentrations of 200, 20, and 2 μM), followed by either 100 μl of biotinylated fibrinogen (at 1 μg/ml in conjugate buffer) or 100 μl of biotinylated vitronectin (at 2 μg/ml in conjugate buffer) were added to each well and incubated for 2 hours with shaking. After incubation, the plates were washed with PBS as described above. 100 μl of neutravidin-peroxidase was added to each well and the plates were incubated for 30 minutes with shaking, followed by two washes with PBS. 100 μl of TMB substrate was added to each well and the plates were shaken during color development. Plates were read using a plate spectrophotometer at 630 nm.
Two negative and two positive controls were used in both types of ELISAs. For example, the negative controls were wells that contained 50 μl of an active control peptide, integrin, and biotinylated ligand or 50 μl of the active control peptide and 50 μl of buffer. These negative control wells typically develop little to no color. […] These wells typically develop the maximum amount of color.
(§4) FIGS. 3-6 illustrate the percent binding of the vitronectin, fibronectin, or fibrinogen ligand to αvβ5, α5β1, αIIbβ3, or αvβ3 integrin in the presence of RGD peptides (i.e., linear (A), cyclic (B), or 4-[^19F]-fluorobenzoyl cyclic (C)) at different concentrations, with 100% maximum signal being the signal obtained in the absence of the peptide.

[3] = biological target: T2, αvβ3 integrin (Homo sapiens, UniProt P05106+P06756); assay: ELISA: soluble αvβ3-mFc binding to immobilized 50 kDa fibronectin fragment in the presence of RGD peptides; conditions: 2 μM peptide
T2 construct: chimeras comprising the extracellular domain of αvβ3, αvβ5, α5β1, and αIIbβ3 linked to the Fc domain of either mouse IgG; purchased Celltech plc (supplied, no catalogue number)
T2 sequence (P06756 31-992 limits assumed): as the sequence (P06756 31-992 limits assumed) above
T2 sequence (P05106 27-718 limits assumed): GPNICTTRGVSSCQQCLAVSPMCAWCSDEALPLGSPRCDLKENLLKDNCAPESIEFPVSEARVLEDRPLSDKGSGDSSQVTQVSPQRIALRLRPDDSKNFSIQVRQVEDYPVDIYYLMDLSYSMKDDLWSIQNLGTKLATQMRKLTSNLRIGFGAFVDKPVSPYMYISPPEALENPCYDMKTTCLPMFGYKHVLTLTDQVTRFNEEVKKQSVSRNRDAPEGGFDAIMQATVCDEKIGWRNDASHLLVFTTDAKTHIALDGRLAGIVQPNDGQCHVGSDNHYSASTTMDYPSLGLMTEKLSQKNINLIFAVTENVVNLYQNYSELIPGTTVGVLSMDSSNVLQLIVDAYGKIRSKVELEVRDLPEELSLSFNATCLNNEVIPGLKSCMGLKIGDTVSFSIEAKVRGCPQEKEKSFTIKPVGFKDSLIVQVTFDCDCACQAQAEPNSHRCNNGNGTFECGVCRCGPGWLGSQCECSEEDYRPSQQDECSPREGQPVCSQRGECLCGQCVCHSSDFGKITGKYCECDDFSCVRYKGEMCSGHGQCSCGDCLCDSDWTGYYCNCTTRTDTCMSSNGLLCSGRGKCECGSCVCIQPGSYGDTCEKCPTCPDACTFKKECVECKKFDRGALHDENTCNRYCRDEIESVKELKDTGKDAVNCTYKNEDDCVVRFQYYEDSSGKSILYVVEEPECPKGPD
Excerpt: as §3
The plates were washed with PBS using a Denley Wellwash 4 Mk 2. Washing was repeated twice with a 400 μl wash per well. […] Plates were read using a plate spectrophotometer at 630 nm.
Two negative and two positive controls were used in both types of ELISAs.
as §4

[4] = system: VUP melanoma cell line; assay: Adhesion assay: [51Cr]-VUP cells to vitronectin; format: cell-based; conditions: 20 μM peptide
Procedure: as §1, §2
Sodium [^51Cr] chromate was purchased from Amersham International, UK. […]
25 μl (about 10,000 cells) were added to each quadruplicate well and the plates incubated at 37° C. in an 8% CO2 atmosphere for 1 hour. […] The radioactivity associated with each well was determined in a gamma counter (1261 Multigamma; Wallac, Sweden). Quadruplicate 25 μl samples of labeled cells were counted as 100% input values. To determine non-specific binding, the ability of cells to bind BSA-coated wells was also assessed. […]
The results were calculated as follows: [formula] […]

RGDY(OMe)K [B7]
adhesion of [51Cr]-A375M cells to laminin, normalized to absence of peptide (100%) [1]: 50.40%±1.24% | vitronectin binding to αvβ5, % of the maximum signal [2]: 32.8% | fibronectin binding to αvβ3, % of the maximum signal [3]: 6.6% | adhesion of [51Cr]-VUP cells to vitronectin, normalized to absence of peptide (100%) [4]: 44.16%±1.71%
